Several values for one entry are separate records, joined by “and”; a condition that tells them apart may be missing. Equal entries are not always repeated.

One assay has as its target T1, human CBP HAT (Homo sapiens, UniProt Q92793).
T1 construct: made in house
Kind of assay: CBP HAT inhibition assay. The format is biochemical. The conditions noted are these: read-out: IC50 against CBP HAT. The text has this:
(§1) Humans have three classes of histone/protein lysine acetyltransferases with distinct conserved motifs and structures, including p300/CBP, Gcn5-related N-acetyltransferase (GNAT) and MYST (MOZ, Ybf2, Sas2 and Tip60) family of HATs. […] CBP is a homolog of p300. […] PCAF (p300/CBP associating factor) is a member of the GNAT family, while Myst3 belongs to the MYST family of HATs.
The HAT domain (1195-1673) of human p300 was cloned, inserted into pGEX-KG vector and the DNA sequence was verified by sequencing. The p300-HAT expression plasmid was transformed into E. coli BL21-CodonPlus strain (Agilent) and cultured at 37° C. in LB medium containing ampicillin (50 µg/mL) and chloramphenicol (34 µg/mL). After the optical density of the bacterial culture reached ~0.9 at 600 nm, p300 HAT expression was induced by adding 300 µM isopropylthiogalactoside (IPTG) at 18° C. for 48 hours. Cells were collected, lysed, centrifuged for 20 min at 20,000 rpm. The supernatant was subjected to column chromatography with glutathione sepharose resins. […]
To determine inhibitory activity, a compound with concentrations ranging from 100 nM to 10 µM was incubated with p300-HAT (10 nM) in 20 µL of 50 mM phosphate buffer (pH = 7.0) containing 0.01% Brij-35 for 10 min at 25° C. […] Radioactivity on the filter paper was measured with a Beckman LS-6500 scintillation counter. […]

The target of the next assay is T2, PCAF (Homo sapiens, UniProt Q92831).
T2 construct: made in house
Description: PCAF HAT inhibition assay. The format is biochemical.
From the text: as §1
The HAT domain (1195-1673) of human p300 was cloned, inserted into pGEX-KG vector and the DNA sequence was verified by sequencing. The p300-HAT expression plasmid was transformed into E. coli BL21-CodonPlus strain (Agilent) and cultured at 37° C. in LB medium containing ampicillin (50 µg/mL) and chloramphenicol (34 µg/mL). After the optical density of the bacterial culture reached ~0.9 at 600 nm, p300 HAT expression was induced by adding 300 µM isopropylthiogalactoside (IPTG) at 18° C. for 48 hours. Cells were collected, lysed, centrifuged for 20 min at 20,000 rpm. The supernatant was subjected to column chromatography with glutathione sepharose resins. The recombinant GST-p300-HAT fusion protein was obtained in ~90% purity (SDS-PAGE) by elution with 10 mM of glutathione solution, which was further purified using a Superdex 200 gel filtration column chromatography. CBP, PCAF and Myst3 HATs were obtained using similar methods.
To determine inhibitory activity, a compound with concentrations ranging from 100 nM to 10 µM was incubated with p300-HAT (10 nM) in 20 µL of 50 mM phosphate buffer (pH = 7.0) containing 0.01% Brij-35 for 10 min at 25° C. Histone H3 peptide (1-21) (20 µM) and Acetyl-CoA (1 µM ^3H—Ac—CoA and 19 µM Ac—CoA) were added to initiate the reaction. After 30 min at 25° C., the reaction was stopped by adding 6 N formic acid (5 µL). 20 µL of reaction mixture was then transferred to a small piece of P81 filter paper (Whatman) that binds histone H3 peptide. The filter paper was washed 3x with 50 mM NaHCO3, dried, and transferred into a scintillation vial containing 2 mL of scintillation cocktail. Radioactivity on the filter paper was measured with a Beckman LS-6500 scintillation counter. […]

The subject of another assay is MCF-7. Description: Cell growth inhibition, MCF-7. The format is cell-based. The conditions noted are these: read-out: EC50, antiproliferative activity. On the procedure: The anti-proliferation assays for non-breast cancer cells were done using a previously developed assay. In brief, for Kasumi-1 cells, […] were added into 96-well plates and cultured with increasing concentrations of a compound in RPMI-1640 medium supplemented with 20% fetal bovine serum and penicillin (100 U/mL) and streptomycin (100 µg/mL) at 37° C. in a 5% CO2 atmosphere with 100% humidity. For solid tumor cells, 10^5 cells per well were added into 96-well plates and cultured in Dulbecco’s Modified Eagle’s Medium (DMEM) supplemented with 10% fetal bovine serum and penicillin (100 U/mL) and streptomycin (100 µg/mL) overnight. Upon addition of increasing concentrations of a compound, cells were incubated for 5 days. Cell viability was assessed by using an XTT assay kit (Roche) for leukemia cells or an MTT assay (Sigma) for attachment cells. For the breast cancer MCF-7 cells, culture and inhibition assays were performed according to our previous methods in Ref. 25 and 26. Compound EC50 values were calculated from dose response curves using Prism 5.0.

T2 sequence (Q92831 whole entry): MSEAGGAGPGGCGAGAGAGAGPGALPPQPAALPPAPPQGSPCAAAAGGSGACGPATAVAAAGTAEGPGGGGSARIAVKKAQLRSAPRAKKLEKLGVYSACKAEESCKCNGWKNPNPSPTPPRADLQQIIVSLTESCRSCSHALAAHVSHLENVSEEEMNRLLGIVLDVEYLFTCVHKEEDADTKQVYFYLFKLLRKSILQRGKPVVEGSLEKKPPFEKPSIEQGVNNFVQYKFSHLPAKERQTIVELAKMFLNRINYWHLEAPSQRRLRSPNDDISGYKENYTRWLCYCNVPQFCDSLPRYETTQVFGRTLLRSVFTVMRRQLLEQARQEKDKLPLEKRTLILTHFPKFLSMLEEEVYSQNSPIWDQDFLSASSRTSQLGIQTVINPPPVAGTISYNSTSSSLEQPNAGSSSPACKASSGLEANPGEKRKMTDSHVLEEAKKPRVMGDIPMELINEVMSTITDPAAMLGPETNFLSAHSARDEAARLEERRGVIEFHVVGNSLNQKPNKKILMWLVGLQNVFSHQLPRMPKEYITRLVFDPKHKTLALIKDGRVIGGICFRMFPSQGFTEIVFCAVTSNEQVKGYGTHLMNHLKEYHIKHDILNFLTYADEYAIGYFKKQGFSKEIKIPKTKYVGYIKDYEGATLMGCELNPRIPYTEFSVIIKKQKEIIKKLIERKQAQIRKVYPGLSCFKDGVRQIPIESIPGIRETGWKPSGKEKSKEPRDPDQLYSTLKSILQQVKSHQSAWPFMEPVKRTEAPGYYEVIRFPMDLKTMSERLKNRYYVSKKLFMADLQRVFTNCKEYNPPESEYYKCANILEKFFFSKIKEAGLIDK
T1 sequence (Q92793 1323-1700 limits assumed): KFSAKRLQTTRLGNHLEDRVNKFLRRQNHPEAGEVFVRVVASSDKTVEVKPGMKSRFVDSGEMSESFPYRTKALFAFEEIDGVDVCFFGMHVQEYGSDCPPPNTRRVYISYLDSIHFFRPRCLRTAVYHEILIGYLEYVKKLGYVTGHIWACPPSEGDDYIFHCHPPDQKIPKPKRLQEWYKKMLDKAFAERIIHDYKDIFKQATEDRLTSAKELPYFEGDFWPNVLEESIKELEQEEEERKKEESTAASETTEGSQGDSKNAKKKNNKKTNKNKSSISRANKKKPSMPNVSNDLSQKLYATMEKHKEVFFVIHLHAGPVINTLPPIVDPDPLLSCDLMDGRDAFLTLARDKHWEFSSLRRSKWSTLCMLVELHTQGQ

In general, IC50 refers to the point on the concentration scale where inhibition reaches its midpoint. What is called EC50 is the concentration at which the effect is half-maximal. For `CC(C)(C)c1ccc(-c2cc(CNCC3CCNCC3)sc2-c2ccc(C(C)(C)C)cc2)cc1` [Compound 12], the IC50 at human CBP HAT came out at 1200 nM. Besides, at PCAF (at 20 µM), the “inhibition of PCAF” value is below 10% and the “inhibition of PCAF activity (in words)” value is reported as “did not significantly inhibit”. Moreover, the IC50 on PCAF (read-out: IC50 against PCAF) was above 20000 nM. The EC50 in the assay with MCF-7 is 2800 nM and ~3000 nM.

The record behind these values is patent US20230167101A1, “NOVEL INHIBITORS OF HISTONE […] P300/CBP FOR CANCER THERAPY” (BAYLOR COLLEGE OF MEDICINE, priority 2020, published 2023).
